Results reported in the NIST ThermoML archive (doi:10.1021/je0504515).

Assay: xn = mol fraction of the nth substance listed
Settings: Liquid; for electrical conductivity: Radiometer CDM 210 Meterlab conductimeter with a CDC 745-9 cell

CCCCCC[N+]1(C)CCCC1.O=S(=O)([N-]S(=O)(=O)C(F)(F)F)C(F)(F)F + CN(C)C=O
Settings | electrical conductivity, 101 kPa [S/m] | viscosity, 101.3 kPa [mPa·s]
293.2 K, x2 = 0.1 | 0.155 | –
293.2 K, x2 = 0.5 | 0.382 | –
293.2 K, x2 = 0.9 | 1.68 | –
295.2 K, x2 = 0 | – | 119.8
295.2 K, x2 = 0.1 | 0.17 | –
295.2 K, x2 = 0.104 | – | 83
295.2 K, x2 = 0.205 | – | 56.7
295.2 K, x2 = 0.301 | – | 42.9
295.2 K, x2 = 0.402 | – | 28.1
295.2 K, x2 = 0.5 | 0.418 | 19.6
295.2 K, x2 = 0.599 | – | 12
295.2 K, x2 = 0.7 | – | 5.5
295.2 K, x2 = 0.9 | 1.74 | –
298.2 K, x2 = 0.1 | 0.191 | –
298.2 K, x2 = 0.5 | 0.47 | –
298.2 K, x2 = 0.9 | 1.82 | –
300.2 K, x2 = 0 | – | 96.8
300.2 K, x2 = 0.104 | – | 67.5
300.2 K, x2 = 0.205 | – | 47.2
300.2 K, x2 = 0.301 | – | 36.4
300.2 K, x2 = 0.402 | – | 24
300.2 K, x2 = 0.5 | – | 17
300.2 K, x2 = 0.599 | – | 10.5
300.2 K, x2 = 0.7 | – | 5.1
301.2 K, x2 = 0.1 | 0.211 | –
301.2 K, x2 = 0.5 | 0.522 | –
301.2 K, x2 = 0.9 | 1.9 | –
303.2 K, x2 = 0.1 | 0.224 | –
303.2 K, x2 = 0.5 | 0.557 | –
303.2 K, x2 = 0.9 | 1.96 | –
305.2 K, x2 = 0 | – | 79.6
305.2 K, x2 = 0.1 | 0.239 | –
305.2 K, x2 = 0.104 | – | 55.8
305.2 K, x2 = 0.205 | – | 39.8
305.2 K, x2 = 0.301 | – | 30.8
305.2 K, x2 = 0.402 | – | 20.9
305.2 K, x2 = 0.5 | 0.592 | 14.7
305.2 K, x2 = 0.599 | – | 9.3
305.2 K, x2 = 0.7 | – | 4.7
305.2 K, x2 = 0.9 | 2.02 | –
308.2 K, x2 = 0.1 | 0.26 | –
308.2 K, x2 = 0.5 | 0.645 | –
308.2 K, x2 = 0.9 | 2.1 | –
310.2 K, x2 = 0 | – | 64.8
310.2 K, x2 = 0.104 | – | 45.9
310.2 K, x2 = 0.205 | – | 33.6
310.2 K, x2 = 0.301 | – | 26.3
310.2 K, x2 = 0.402 | – | 17.9
310.2 K, x2 = 0.5 | – | 13
310.2 K, x2 = 0.599 | – | 8.4
310.2 K, x2 = 0.7 | – | 4.3
311.2 K, x2 = 0.1 | 0.28 | –
311.2 K, x2 = 0.5 | 0.697 | –
311.2 K, x2 = 0.9 | 2.19 | –
313.2 K, x2 = 0.1 | 0.295 | –
313.2 K, x2 = 0.5 | 0.732 | –
313.2 K, x2 = 0.9 | 2.24 | –
315.2 K, x2 = 0 | – | 54.2
315.2 K, x2 = 0.1 | 0.31 | –
315.2 K, x2 = 0.104 | – | 38
315.2 K, x2 = 0.205 | – | 28.8
315.2 K, x2 = 0.301 | – | 22.6
315.2 K, x2 = 0.402 | – | 15.7
315.2 K, x2 = 0.5 | 0.767 | 11.4
315.2 K, x2 = 0.599 | – | 7.5
315.2 K, x2 = 0.7 | – | 3.9
315.2 K, x2 = 0.9 | 2.31 | –
318.2 K, x2 = 0.1 | 0.33 | –
318.2 K, x2 = 0.5 | 0.819 | –
318.2 K, x2 = 0.9 | 2.39 | –
320.2 K, x2 = 0 | – | 45.9
320.2 K, x2 = 0.104 | – | 32.4
320.2 K, x2 = 0.205 | – | 24.8
320.2 K, x2 = 0.301 | – | 19.5
320.2 K, x2 = 0.402 | – | 13.9
320.2 K, x2 = 0.5 | – | 10
320.2 K, x2 = 0.599 | – | 6.8
320.2 K, x2 = 0.7 | – | 3.6
321.2 K, x2 = 0.1 | 0.351 | –
321.2 K, x2 = 0.5 | 0.871 | –
321.2 K, x2 = 0.9 | 2.48 | –
323.2 K, x2 = 0.1 | 0.365 | –
323.2 K, x2 = 0.5 | 0.91 | –
323.2 K, x2 = 0.9 | 2.54 | –
325.2 K, x2 = 0 | – | 38.9
325.2 K, x2 = 0.104 | – | 27.6
325.2 K, x2 = 0.205 | – | 21.8
325.2 K, x2 = 0.301 | – | 16.9
325.2 K, x2 = 0.402 | – | 12
325.2 K, x2 = 0.5 | – | 9.1
325.2 K, x2 = 0.599 | – | 6.2
325.2 K, x2 = 0.7 | – | 3.4

CCCC[N+]1(C)CCCC1.O=S(=O)([N-]S(=O)(=O)C(F)(F)F)C(F)(F)F + CN(C)C=O
295.2 K
Settings | electrical conductivity, 101 kPa [S/m] | viscosity, 101.3 kPa [mPa·s]
x2 = 0 | 0.28 | 80
x2 = 0.13 | – | 40.3
x2 = 0.144 | 0.387 | –
x2 = 0.24 | – | 29.6
x2 = 0.252 | 0.495 | –
x2 = 0.33 | – | 21.7
x2 = 0.336 | 0.612 | –
x2 = 0.403 | 0.74 | –
x2 = 0.45 | – | 14.4
x2 = 0.457 | 0.78 | –
x2 = 0.519 | 0.981 | –
x2 = 0.54 | – | 9.9
x2 = 0.574 | 1.1 | –
x2 = 0.637 | 1.32 | –
x2 = 0.64 | – | 6.6
x2 = 0.716 | 1.6 | –
x2 = 0.74 | – | 3.7
x2 = 0.773 | 1.85 | –
x2 = 0.835 | 2.1 | –
x2 = 0.871 | 2.17 | –
x2 = 0.894 | 2.17 | –
x2 = 0.91 | 2.12 | –
x2 = 0.931 | 1.98 | –
x2 = 0.953 | 1.7 | –
x2 = 0.971 | 1.31 | –
x2 = 0.981 | 1.01 | –

CCCC[N+]1(C)CCCC1.O=S(=O)([N-]S(=O)(=O)C(F)(F)F)C(F)(F)F + Cc1cccnc1
Settings | electrical conductivity [S/m]
295.2 K, 101 kPa, x2 = 0 | 0.28

CCCCn1cc[n+](C)c1.F[B-](F)(F)F [1-butyl-3-methylimidazolium tetrafluoroborate] + CN(C)C=O
295.2 K, 101 kPa
Settings | electrical conductivity [S/m] | viscosity [mPa·s]
x2 = 0 | 0.375 | 122.9
x2 = 0.088 | 0.464 | –
x2 = 0.14 | – | 65.6
x2 = 0.161 | 0.551 | –
x2 = 0.224 | 0.629 | –
x2 = 0.23 | – | 45.4
x2 = 0.324 | 0.79 | –
x2 = 0.33 | – | 26.3
x2 = 0.366 | 0.871 | –
x2 = 0.434 | 1.03 | –
x2 = 0.44 | – | 16.1
x2 = 0.49 | 1.17 | –
x2 = 0.53 | – | 11.2
x2 = 0.535 | 1.3 | –
x2 = 0.606 | 1.55 | –
x2 = 0.61 | – | 9.8
x2 = 0.658 | 1.72 | –
x2 = 0.728 | 2.01 | –
x2 = 0.73 | – | 4.7
x2 = 0.793 | 2.31 | –
x2 = 0.828 | 2.4 | –
x2 = 0.852 | 2.44 | –
x2 = 0.906 | 2.44 | –
x2 = 0.957 | 1.83 | –
x2 = 0.973 | 1.39 | –
x2 = 0.981 | 1.13 | –

CCCCn1cc[n+](C)c1.F[B-](F)(F)F [1-butyl-3-methylimidazolium tetrafluoroborate] + Cc1cccnc1
Settings | electrical conductivity [S/m]
295.2 K, 101 kPa, x2 = 0 | 0.378

Cc1cccnc1 [3-methylpyridine] + CCCC[N+]1(C)CCCC1.O=S(=O)([N-]S(=O)(=O)C(F)(F)F)C(F)(F)F
295.2 K, 101 kPa
Settings | electrical conductivity [S/m]
x1 = 0.029 | 0.353
x1 = 0.057 | 0.335
x1 = 0.095 | 0.367
x1 = 0.153 | 0.416
x1 = 0.194 | 0.445
x1 = 0.249 | 0.467
x1 = 0.338 | 0.522
x1 = 0.387 | 0.578
x1 = 0.439 | 0.606
x1 = 0.49 | 0.635
x1 = 0.54 | 0.686
x1 = 0.591 | 0.726
x1 = 0.64 | 0.761
x1 = 0.691 | 0.793
x1 = 0.743 | 0.814
x1 = 0.794 | 0.808
x1 = 0.845 | 0.771
x1 = 0.896 | 0.665

Cc1cccnc1 [3-methylpyridine] + CCCCn1cc[n+](C)c1.F[B-](F)(F)F
295.2 K, 101 kPa
Settings | electrical conductivity [S/m]
x1 = 0.061 | 0.44
x1 = 0.114 | 0.476
x1 = 0.162 | 0.52
x1 = 0.205 | 0.555
x1 = 0.244 | 0.588
x1 = 0.279 | 0.616
x1 = 0.34 | 0.674
x1 = 0.392 | 0.72
x1 = 0.474 | 0.802
x1 = 0.568 | 0.845
x1 = 0.659 | 0.915
x1 = 0.721 | 0.928
x1 = 0.763 | 0.936
x1 = 0.798 | 0.94
x1 = 0.838 | 0.838
x1 = 0.866 | 0.747
x1 = 0.906 | 0.59
x1 = 0.928 | 0.474
